Experimental data from PubChem BioAssay AID248 (DTP/NCI, 2004).
Several values for one entry are separate records, joined by “and”; a condition that tells them apart may be missing. Equal values may be shown once. Inconclusive results and toxic doses are left out. Cut-off read from the data, not from the text of the source: active = T/C of 150% or more; inactive = T/C below 125%.

System: L1210 leukemia ip in BDF1 mice, survival T/C
Assay: NCI In Vivo Anticancer Drug Screen. Data for tumor model L1210 Leukemia (intraperitoneal) in B6D2F1 (BDF1) mice
Conditions: endpoint: mean survival time, higher = longer survival
Outline: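 Survival endpoint. Drug-treated group vs vehicle group, expressed as T divided by C. Tumor passaged by transplantation.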

[1] = dose: 12.5 mg/kg/injection, schedule: Q01DX009 (ip), vehicle: Klucel (hydroxypropylcellulose) (HPC)
[2] = dose: 25.0 mg/kg/injection, schedule: Q01DX009 (ip), vehicle: Klucel (hydroxypropylcellulose) (HPC)
[3] = dose: 50.0 mg/kg/injection, schedule: Q01DX001 (ip), vehicle: Klucel (hydroxypropylcellulose) (HPC)
[4] = dose: 100.0 mg/kg/injection, schedule: Q01DX001 (ip), vehicle: Klucel (hydroxypropylcellulose) (HPC)
[5] = dose: 200.0 mg/kg/injection, schedule: Q01DX001 (ip), vehicle: Klucel (hydroxypropylcellulose) (HPC)
[6] = dose: 100.0 mg/kg/injection, schedule: Q04DX003 (ip), vehicle: saline
[7] = dose: 100.0 mg/kg/injection, schedule: Q04DX003 (ip), vehicle: saline with Tween-80
[8] = dose: 200.0 mg/kg/injection, schedule: Q04DX003 (ip), vehicle: saline with Tween-80

Measured: T/C

c1ccc([Se]c2ccccn2)nc1
inactive: [1] 101 % of control | dose: 12.5 mg/kg/injection, schedule: Q04DX003 (ip), vehicle: Klucel (hydroxypropylcellulose) (HPC) 105 % of control | dose: 25.0 mg/kg/injection, schedule: Q01DX001 (ip), vehicle: Klucel (hydroxypropylcellulose) (HPC) 102 % of control | [2] 98 % of control | dose: 25.0 mg/kg/injection, schedule: Q04DX003 (ip), vehicle: Klucel (hydroxypropylcellulose) (HPC) 103 % of control | [3] 110 % of control | dose: 50.0 mg/kg/injection, schedule: Q04DX003 (ip), vehicle: Klucel (hydroxypropylcellulose) (HPC) 107 % of control and 110 % of control | [4] 105 % of control

CC(=O)OCC1OC(=O)C(C)N(C)C(=O)CN(C)C(=O)C2C(=O)CC(C)N2C(=O)C(C(C)C)NC(=O)C1NC(=O)c1c2nc3c(C(=O)NC4C(=O)NC(C(C)C)C(=O)N5C(C)CC(OC(C)=O)C5C(=O)N(C)CC(=O)N(C)C(C(C)C)C(=O)OC4C)ccc(C)c3oc-2c(C)c(=O)c1N (stereo unspecified)
inactive: dose: 0.05 mg/kg/injection, schedule: Q01DX009 (ip), vehicle: saline with Tween-80 94 % of control | dose: 0.1 mg/kg/injection, schedule: Q01DX009 (ip), vehicle: saline with Tween-80 102 % of control | dose: 0.15 mg/kg/injection, schedule: Q04DX003 (ip), vehicle: saline with Tween-80 95 % of control | dose: 0.2 mg/kg/injection, schedule: Q01DX009 (ip), vehicle: saline with Tween-80 112 % of control | dose: 0.3 mg/kg/injection, schedule: Q04DX003 (ip), vehicle: saline with Tween-80 100 % of control | dose: 0.4 mg/kg/injection, schedule: Q01DX001 (ip), vehicle: saline with Tween-80 102 % of control | dose: 0.4 mg/kg/injection, schedule: Q01DX009 (ip), vehicle: saline with Tween-80 118 % of control | dose: 0.6 mg/kg/injection, schedule: Q04DX003 (ip), vehicle: saline with Tween-80 111 % of control | dose: 0.8 mg/kg/injection, schedule: Q01DX001 (ip), vehicle: saline with Tween-80 118 % of control | dose: 1.2 mg/kg/injection, schedule: Q04DX003 (ip), vehicle: saline with Tween-80 118 % of control | dose: 1.6 mg/kg/injection, schedule: Q01DX001 (ip), vehicle: saline with Tween-80 112 % of control | dose: 2.4 mg/kg/injection, schedule: Q04DX003 (ip), vehicle: saline with Tween-80 119 % of control | dose: 3.2 mg/kg/injection, schedule: Q01DX001 (ip), vehicle: saline with Tween-80 119 % of control | dose: 6.4 mg/kg/injection, schedule: Q01DX001 (ip), vehicle: saline with Tween-80 102 % of control

NC(=O)c1cn[nH]c1NC(=O)/C=C/c1cccc([N+](=O)[O-])c1
inactive: [3] 92 % of control | [4] 96 % of control | [5] 91 % of control

NS(=O)(=O)c1ccc(Br)cc1
inactive: dose: 25.0 mg/kg/injection, schedule: Q04DX003 (ip), vehicle: saline 106 % of control | dose: 50.0 mg/kg/injection, schedule: Q04DX003 (ip), vehicle: saline 97 % of control | [6] 100 % of control | dose: 150.0 mg/kg/injection, schedule: Q04DX003 (ip), vehicle: saline 105 % of control | dose: 225.0 mg/kg/injection, schedule: Q04DX003 (ip), vehicle: saline 102 % of control | dose: 335.0 mg/kg/injection, schedule: Q04DX003 (ip), vehicle: saline 105 % of control

O=C1CCSC(=O)N1SC(Cl)(Cl)Cl
inactive: dose: 6.0 mg/kg/injection, schedule: Q04DX003 (ip), vehicle: saline with Tween-80 88 % of control | dose: 12.0 mg/kg/injection, schedule: Q01DX009 (ip), vehicle: saline with Tween-80 94 % of control | dose: 12.0 mg/kg/injection, schedule: Q04DX003 (ip), vehicle: saline with Tween-80 101 % of control | dose: 25.0 mg/kg/injection, schedule: Q01DX009 (ip), vehicle: saline with Tween-80 92 % of control | dose: 25.0 mg/kg/injection, schedule: Q04DX003 (ip), vehicle: saline with Tween-80 97 % of control and 101 % of control | dose: 50.0 mg/kg/injection, schedule: Q01DX009 (ip), vehicle: saline with Tween-80 93 % of control and 90 % of control | [6] 98 % of control | dose: 200.0 mg/kg/injection, schedule: Q04DX003 (ip), vehicle: saline 93 % of control

O=C1NC2(c3ccccc3)CCCCC2O1 (stereo unspecified)
inactive: dose: 75.0 mg/kg/injection, schedule: Q01DX001 (ip), vehicle: acetone 98 % of control and 92 % of control | dose: 150.0 mg/kg/injection, schedule: Q01DX001 (ip), vehicle: acetone 102 % of control | dose: 300.0 mg/kg/injection, schedule: Q01DX001 (ip), vehicle: acetone 100 % of control and 89 % of control

CCCCCCCCCCSCCCCCCCCSCCCCCCCCCC
inactive: [4] 94 % of control | [5] 87 % of control | dose: 400.0 mg/kg/injection, schedule: Q01DX001 (ip), vehicle: Klucel (hydroxypropylcellulose) (HPC) 96 % of control

COc1ccccc1CCN
inactive: dose: 100.0 mg/kg/injection, schedule: Q04DX002 (ip), vehicle: saline 112 % of control | dose: 200.0 mg/kg/injection, schedule: Q04DX002 (ip), vehicle: saline 93 % of control and 108 % of control

CCN(CC)CCSc1ncnc2nc[nH]c12
inactive: dose: 75.0 mg/kg/injection, schedule: Q01DX001 (ip), vehicle: saline 102 % of control | dose: 150.0 mg/kg/injection, schedule: Q01DX001 (ip), vehicle: saline 91 % of control | dose: 300.0 mg/kg/injection, schedule: Q01DX001 (ip), vehicle: saline 104 % of control

Nc1ccc(-n2cnc3c(=O)[nH]c(N)nc32)cc1
inactive: [7] 98 % of control | [8] 98 % of control | dose: 400.0 mg/kg/injection, schedule: Q04DX003 (ip), vehicle: saline with Tween-80 92 % of control

CN(C)C1CS(=O)(=O)C1C1CS(=O)(=O)C1 (stereo unspecified)
inactive: dose: 100.0 mg/kg/injection, schedule: Q04DX002 (ip), vehicle: Klucel (hydroxypropylcellulose) (HPC) 89 % of control | dose: 200.0 mg/kg/injection, schedule: Q04DX002 (ip), vehicle: Klucel (hydroxypropylcellulose) (HPC) 86 % of control | dose: 400.0 mg/kg/injection, schedule: Q04DX002 (ip), vehicle: Klucel (hydroxypropylcellulose) (HPC) 96 % of control

[Cl][Sb]([Cl])([c]1ccccc1)([c]1ccccc1)[c]1ccccc1
inactive: [1] 95 % of control | [2] 93 % of control | dose: 25.0 mg/kg/injection, schedule: Q04DX002 (ip), vehicle: saline with Tween-80 93 % of control | dose: 50.0 mg/kg/injection, schedule: Q01DX001 (ip), vehicle: carboxymethylcellulose (CMC) 96 % of control | dose: 50.0 mg/kg/injection, schedule: Q01DX009 (ip), vehicle: Klucel (hydroxypropylcellulose) (HPC) 102 % of control and 91 % of control | dose: 50.0 mg/kg/injection, schedule: Q04DX002 (ip), vehicle: saline with Tween-80 97 % of control | dose: 100.0 mg/kg/injection, schedule: Q01DX001 (ip), vehicle: carboxymethylcellulose (CMC) 96 % of control | dose: 100.0 mg/kg/injection, schedule: Q04DX002 (ip), vehicle: saline with Tween-80 101 % of control | dose: 100.0 mg/kg/injection, schedule: Q04DX003 (ip), vehicle: Klucel (hydroxypropylcellulose) (HPC) 102 % of control | dose: 200.0 mg/kg/injection, schedule: Q01DX001 (ip), vehicle: carboxymethylcellulose (CMC) 114 % of control | dose: 200.0 mg/kg/injection, schedule: Q04DX003 (ip), vehicle: Klucel (hydroxypropylcellulose) (HPC) 96 % of control | dose: 400.0 mg/kg/injection, schedule: Q01DX001 (ip), vehicle: carboxymethylcellulose (CMC) 93 % of control | dose: 400.0 mg/kg/injection, schedule: Q04DX003 (ip), vehicle: Klucel (hydroxypropylcellulose) (HPC) 105 % of control

Cc1cc(I)ccc1NC(=S)Nc1ccccc1F
inactive: [7] 93 % of control | [8] 105 % of control
